For data set [1] the following is noted: water; cited from earlier work.
Data set [2] deals with patients. The experiment in a line: Clinical use of MSM ophthalmic drops by the inventor. In kind it is in vivo, human.
Description: We have used aqueous solutions of MSM filtered, sterilized, and mixed with insulin.
The test system of the next data set is photoreceptor cell. The note with it: in vitro model; cited from earlier work.
For data set [3] the following is noted: in vivo; cited from earlier work.
The conditions of data set [4]: local application incl. conjunctival sac, scalp, gums, wounds. The text has this:
The present invention formulations contain only 0.10 to 1.00 IU per drop which the dosage can be increased or the dosage can be decreased depending upon the disease states.

Another data set relates to oxidized cells. The note with it: H2O2 induced, insulin pretreatment; cited from earlier work.
Data set [5] concerns patients with neovascular ARMS. Conditions: intravitreous 1.25 mg injections; cited from earlier work.
The conditions of data set [6]: after oral intake; cited from earlier work.
In data set [7] the test system is patients. The note with it: supplementation; cited from earlier work.
The conditions of data set [8]: cited from earlier work.
Data set [9] relates to dry mouth and dry eyes conditions. The experiment in a line: Clinical use of ADT orally and as eye drops. The format is in vivo. Conditions: 25 mg orally and nanograms concentration in eye drops. How it is done:
We have used ADT 25 mg orally and ADT in nanograms concentration in liquid ophthalmic eye drops with success in these conditions, especially, those on chemotherapy, menopausal women, and chronic smokers with dry mouth and dry eyes conditions. There is secretory dysfunction associated with RPE and Muller cells which are needed for proper functioning of the photoreceptors by removing ROS. This can be one of the important non toxic oral and eye drops for the treatment of age related macular degeneration (Ben-Mandi M H, Gozin A, Driss F, Andrieu V, Christen M O, Pasquier C. Anethole dithiolethione regulates oxidant-induced tyrosine kinase activation in endothelial cells. Antioxid Redox Signal. 2000 Winter, 2 (4):789-99). […] (Han S F, Yao T T, Zhang X X, Gan L, Zhu C, Yu H Z, Gan Y. Int J Pharm. Lipid-based formulations to enhance oral bioavailability of the poorly water-soluble drug anetholtrithione: effects of lipid composition and formulation. 2009 Sep. 8; 379(1):18-24. Epub 2009 Jun. 7.).

Data set [10] deals with individuals with macular edema. The note with it: fluorescein angiography; cited from earlier work.

For `CS(C)(=O)=O` [MSM, Methylsulfonylmethane], the solubility result in [1] is listed as “soluble in water”. Also, the treatment outcome in the data set on patients [2] (aqueous MSM mixed with insulin as eye drops, ARMD, retinitis pigmentosa, cataract, dry eye, glaucoma) is “good results”. Further, in the data set with patients [2] (ophthalmic drops, aged, Lyme disease and cancer patients), the patient-reported vision result is reported as “their vision had improved”.
In the case of brimonidine tartrate, the photoreceptor cell degeneration result with photoreceptor cell is “prevent photoreceptor cell degeneration”.
In the case of Insulin glargine, in data set [3], the “Peak action in hours” value was 8 to 16 h.
Regarding insulin, in [4], the “change of blood sugar levels (hypoglycemic effect)” value is on record as “did not change the blood sugar levels”. For the same molecule, in the data set with oxidized cells, the lipid peroxidation result is given as “significantly inhibited”.
Regarding bevacizumab, the “patients improved 10 or more letters” value in [5] was “more than 45%”.
Turning to “Regular (soluble): short-acting regular (soluble) insulin”, the “Peak action in hours” value in data set [3] was 2 to 3 h.
Vitamin A: in [6], the “time to peak blood concentration” value is listed as “one”. The postponement of blindness in the data set with patients [7] is reported as around 10 years.
Take “NPH (isophane): intermediate-acting NPH (isophane) insulin”: in data set [3], the “Peak action in hours” value is 6 to 10 h.
As to hyaluronic acid, in data set [8] (0.1% solution), the pH was 6.0-7.5. Besides, in data set [8] (hydrated), the “water contained relative to own weight” value is on record as “up to 1,000 fold”.
anethole dithiolethione [ADT]: in data set [9], the treatment outcome is on record as “success”.
With `CC(=O)Nc1nnc(S(N)(=O)=O)s1` [acetazolamide], the “leakage of dye into the photoreceptor area” value in data set [10] is recorded as “inhibited”.
As to Insulin detemir, the “Peak action in hours” value in data set [3] is 6 to 8 h.

These data come from patent US20110052678A1, “METHOD FOR TREATING AGE RELATED MACULAR DEGENERATION” (priority 2010, published 2011).
